# Assay results from patent US20200188441A1, “METHODS AND COMPOSITIONS FOR REDUCING CORNEAL ENDOTHELIAL CELL LOSS” (The Schepens Eye Research Institute, Inc., priority 2017, published 2020).
# No end group written: not given here.
# Experiments:
# corneal graft [1] = experiment: Murine model of syngeneic corneal transplantation with endothelial injury; type: in vivo
# Excerpt: FIG. 11A: Representative slit-lamp images showing corneas at week 2-6 post-transplantation (magnification ×25). […] FIG. 11C: Representative confocal micrographs of central area of transplanted corneas isolated from VIP-treated mice and the control groups at week 2, 4 and 6 after transplantation. To visualize corneal endothelial cell-to-cell junctions, corneas were stained with zonula occluden-1 (ZO-1, green). The scale bars are equal to 100 μm (magnification ×40). FIG. 11D: Bar diagram showing central endothelial cell density in VIP-treated corneas and controls at 2, 4 and 6 weeks post-transplantation. Data are presented as mean±SEM. Each group consists of n=6 corneas, and data from one out of two independent experiments is shown.
# [2] = test system: human corneal endothelial cells; experiment: Corneal endothelial wound healing in vitro; type: cell-based; conditions: VIP 10^−9, 10^−7 and 10^−6 M; 12 and 24 hours after incubation; vs control
# Excerpt: FIG. 9 is a graph showing that VIP treatment of human corneal endothelial cells accelerates corneal endothelial wound healing in vitro in a dose-dependent manner Percentage of healed endothelial area compared to baseline in VIP-treated groups and in control. […] Error bars indicate mean±SEM. Each group consists of n=9, and data from one out of two independent experiments is shown.
# [3] = test system: corneal endothelial cells; experiment: IFNγ- and TNFα-mediated corneal endothelial cell apoptosis in corneal cups ex vivo (TUNEL); type: cell-based, C57BL/6; conditions: VIP 10^−6 M; 18 hours of incubation
# Method: FIG. 10A is a set of micrographs and FIG. 10B is a graph showing that VIP suppresses IFNγ- and TNFα-mediated corneal endothelial cell apoptosis. FIG. 10A: Representative confocal micrographs showing nave C57BL/6 corneal cups incubated with either IFNγ or TNFα with or without VIP (10^−12, 10^−9, 10^−6 M). After 18 hours of incubation, corneas were stained for zonula occluden-1 (ZO-1, green) and terminal deoxynucleotidyl transferase-mediated dUTP nick-end labeling assay (TUNEL, red) to visualize endothelial cell-to-cell junctions and apoptotic cells, respectively. The scale bars are equal to 100 μm (magnification ×40). FIG. 10B: Bar diagram showing the percentages of apoptotic (TUNEL-positive) corneal endothelial cells incubated ex vivo with either IFNγ or TNFα with different doses of VIP. […] Data are presented as mean±SEM. Each group consists of n=5 corneas and data from one out of two independent experiments is shown.
# corneal graft [4] = experiment: High-risk allogeneic corneal transplantation; type: in vivo, mice
# Excerpt: FIGS. 12A-D are graphs and images showing the effect of VIP treatment on high-risk corneal transplant survival. Animals underwent high-risk allogeneic corneal transplantation and received treatment with VIP at 1, 3, 5, 7 and 9 days after transplantation. […] Each group consists of n=14. FIG. 12C: Representative confocal micrographs of central area of transplanted corneas in VIP-treated mice and in controls at 1, 2 and 8 weeks post-transplantation. Corneal endothelial cell-to-cell junction were stained and visualized with zonula occluden-1 (ZO-1, green). The scale bars are equal to 100 μm (magnification ×40). […] Horizontal line represents the CEnC density of nave age-matched C57BL/6 corneas. Each group consists of n=5 corneas. All data are presented as mean±SEM, and data from one out of two independent experiments is shown.
substance,measurement,setting,value
"VIP: vasoactive intestinal polypeptide, a neuropeptide; exemplary human sequence SEQ ID NO: 5 (HSDAVFTDNYTRLRKQMAVKKYLNSILN; ends and bridges not checked; UniProt P01282 125-152, looked up)",corneal endothelial wound healing,corneal graft [1]; syngeneic transplantation with endothelial injury,enhances corneal endothelial wound healing
same,graft opacity scores,"corneal graft [1]; week 2 to 6 post-transplantation, vs control",significantly decreased
same,wound healing (percentage of healed endothelial area compared to baseline),[2],significantly enhanced wound healing
same,IFNγ-mediated corneal endothelial cell apoptosis (TUNEL-positive cells),[3],significantly suppresses
same,TNFα-mediated corneal endothelial cell apoptosis (TUNEL-positive cells),[3],significantly suppresses
same,graft opacity scores,"corneal graft [4]; 4 to 8 weeks post-transplantation, VIP at 1, 3, 5, 7 and 9 days after transplantation",significantly decreased
same,central CEnC density,"corneal graft [4]; 8 weeks post-transplantation, vs control",significantly higher
same,"hazard ratio (graft survival, VIP-treated vs controls)","corneal graft [4]; 8 weeks, 95% CI 0.04-0.26, Log rank test",0.10
same,graft survival,"corneal graft [4]; weekly examination for 8 weeks, controls 0%",85%
